In patent publication US8828416B2 (Cordis Corporation, priority 2004, dated 2014):
Entries after “also recorded” stand apart in the source; their conditions may differ. Like-named read-outs stand apart in the source and are kept apart here.

Experiments:
[1] = cited from earlier work
[2] = system: human smooth muscle cells; assay: Inhibition of human vascular cell proliferation with cladribine, smooth muscle cells, PDGF-stimulated cell count; assay type: cell-based; conditions: from IC50 values 23 and 40 nanomolar
Description: After twenty-four hours, the growth medium was changed and fresh medium containing 10 ng/ml platelet-derived growth factor AB (PDGF AB; LIFE Technologies), as well as various concentrations of cladribine (0.001-10,000 nM) were added with triplicate wells. Medium was replaced with fresh cladribine-containing medium after three days. On day six, cells were detached by trypsinization to yield a cell suspension, lightly centrifuged to pellet and then counted manually using a Neubauer hemocytometer system. Cell viability was assessed by trypan blue exclusion.

[3] = system: non-synchronized cultured human coronary artery smooth muscle cells; assay: Anti-proliferative activity in non-synchronized cultured human coronary artery smooth muscle cells stimulated with two percent fetal bovine serum; assay type: cell-based
Description: The multiple curves represent various concentrations of mycophenolic acid ranging from zero to one thousand nanomolar concentrations.
FIG. 58 illustrates, in graphical format, the anti-proliferative activity of cladribine in non-synchronized cultured human coronary artery smooth muscle cells stimulated with two percent fetal bovine serum.
The multiple curves represent various concentrations of cladribine ranging from zero to nine hundred nanomolar concentrations.

[4] = In vitro release kinetics of cladribine from PVDF/HFP coatings in twenty-five percent ethanol/water; assay type: in vitro ADME; conditions: room temperature
Description: FIG. […] The basecoat comprises a ratio of PVDF/ HFP (85/15) and cladribine. Cladribine comprises thirty percent of the basecoat. The topcoat also comprises an 85/15 ratio of PVDF and HFP, but no cladribine. Curve 5902 represents the release kinetics of cladribine wherein the basecoat weight is six hundred micrograms (one hundred eighty micrograms cladribine). Curve 5904 represents the release kinetics of cladribine wherein the basecoat weight is one thousand eight hundred micrograms (five hundred forty micrograms cladribine). Curve 5906 represents the release kinetics of cladribine wherein the basecoat weight is six hundred micrograms (one hunded eighty micrograms cladribine) and the topcoat weight is one hundred micrograms. Curve 5908 represents the release kinetics of cladribine wherein the basecoat weight is one thousand eight hundred micrograms (five hundred forty micrograms cladribine) and the topcoat is three hundred micrograms. Curve 5910 represents the release kinetic of cladribine wherein the basecoat weight is six hundred micrograms (one hundred eighty micrograms cladribine) and the topcoat is three hundred micrograms.
FIG. 60 is a graphical representation of the in vitro release kinetics of cladribine from a sterile PVDF/HFP coating incorporated in a twenty-five percent ethanol/water release medium at room temperature. […]

[5] = In vivo release kinetics of cladribine and rapamycin from coated Bx Velocity stents in Yorkshire pigs; parameters: species or system Yorkshire pig
Description: FIG. 61 is a graphical representation of the in vivo release kinetics of cladribine from a polymeric coating on Bx Velocity® stents, available from Cordis Corporation, implanted in a Yorkshire pig. The basecoat comprises an 85/15 ratio of PVDF and HFP and cladribine for a total combined weight of one thousand eight hundred micrograms (cladribine comprising thirty percent of the total weight). […]
(§1) The basecoat is applied to Bx Velocity® stents and implanted into Yorkshire pigs.
as §1

[6] = In vivo release kinetics of rapamycin and mycophenolic acid from polymer coatings, porcine pharmacokinetics studies
Description: The topcoat is two hundred micro grams.

[7] = In vitro release kinetics of rapamycin from a combination of rapamycin and mycophenolic acid; assay type: in vitro ADME; conditions: FIG. 55
Description: The in vitro tests were run twice for each coating scenario.

[8] = system: synchronized cultured human coronary artery smooth muscle cells; assay: Anti-proliferative activity in synchronized cultured human coronary artery smooth muscle cells stimulated with two percent fetal bovine serum; assay type: cell-based; conditions: topotecan zero to three hundred nanomolar, FIG. 64
Description: (§2) The multiple curves represent various concentrations of topotecan ranging from zero to three hundred nanomolar concentrations.

[9] = system: cell viability; assay: Separate cell viability assay of topotecan; assay type: cell-based; conditions: concentrations up to one micromolar
Description: as §2

[10] = system: human coronary artery smooth muscle cell; conditions: Brehm et al., 2000; cited from earlier work
[11] = system: human coronary artery smooth muscle cell; assay: Inhibition of coronary artery smooth muscle cell proliferation by trichostatin A, in vitro cell culture; assay type: cell-based
Description: FIG. 51 is a graph of the inhibition of coronary artery smooth muscle cells by trichostatin A in a cell culture study.

[12] = system: tumor cell lines; conditions: tumor cell lines (Woo et al., 2002); cited from earlier work

CC[C@@]1(O)C(=O)OCc2c1cc1n(c2=O)Cc2cc3ccccc3nc2-1 [Camptothecin, camptothecin]
lipid solubility [1]: high lipid solubility
water solubility [1]: poor water solubility

Nc1nc(Cl)nc2c1ncn2[C@H]1C[C@H](O)[C@@H](CO)O1 [Cladribine, 2-chlorodeoxyadenosine]
potency as inhibitor of smooth muscle cells relative to endothelial cells [2]: approximately twice as potent
inhibition of human coronary artery smooth muscle cell proliferation ([3]; cladribine alone, FIG. 58): completely inhibits
effect of added cladribine on the anti-proliferative rapamycin dose response curve ([3]; cladribine zero to nine hundred nanomolar, FIG. 57): potentiate the anti-proliferative activity of rapamycin; also recorded: increases the percent inhibition of rapamycin alone
in vitro release rate of cladribine, effect of topcoat weight ([4]; non-sterile PVDF/HFP (85/15) coatings, FIG. 59): an increase in topcoat weight or thickness led to a decrease in the release rate of cladribine
in vitro release rate of cladribine, effect of topcoat ([4]; sterile PVDF/HFP coating, FIG. 60): a three-times topcoat led to a drastic decrease of release rate
in vivo elution of cladribine compared with rapamycin ([5]; EVA/BMA basecoat, 200 μg BMA topcoat, Yorkshire pigs, FIG. 63): elutes more rapidly than rapamycin
in vivo elution of cladribine over time ([5]; PVDF/HFP 85/15 basecoat 1800 μg (thirty percent cladribine), 300 μg topcoat, Yorkshire pig, FIG. 61): after the first day, the elution of cladribine levels off significantly

CO[C@H]1C[C@@H]2CC[C@@H](C)[C@@](O)(O2)C(=O)C(=O)N2CCCC[C@H]2C(=O)O[C@H]([C@H](C)C[C@@H]2CC[C@@H](O)[C@H](OC)C2)CC(=O)[C@H](C)/C=C(\C)[C@@H](O)[C@@H](OC)C(=O)[C@H](C)C[C@H](C)/C=C/C=C/C=C/1C [Rapamycin, rapamycin]
in vivo release of rapamycin from EVA/BMA basecoat, effect of BMA topcoat ([6]; 600 μg basecoat with 180 μg rapamycin and 180 μg mycophenolic acid, no, 100 or 200 μg BMA topcoat, FIG. 53): BMA topcoat does slow the release of rapamycin from the basecoat
in vivo release rate of rapamycin compared with mycophenolic acid ([6]; PVDF basecoat 600 μg with PVDF topcoat 200 μg, FIG. 56): slower release rate than that of mycophenolic acid
in vitro release of rapamycin from EVA/BMA basecoat, effect of BMA topcoat ([7]; 600 μg basecoat with 180 μg rapamycin and 180 μg mycophenolic acid): BMA topcoat does slow the release of rapamycin from the basecoat in in vitro testing
in vitro release rates of rapamycin compared with in vivo ([7]; EVA/BMA basecoat): release rates are faster than in the in vivo testing
in vivo release rates of rapamycin from rapamycin/cladribine EVA/BMA basecoats ([5]; three rapamycin/cladribine loadings, 200 μg BMA topcoat, Yorkshire pigs, FIG. 62): substantially similar to one another

CC[C@@]1(O)C(=O)OCc2c1cc1n(c2=O)Cc2cc3c(CN(C)C)c(O)ccc3nc2-1 [Topotecan, topotecan]
effect of added topotecan on the anti-proliferative rapamycin dose response curve [8]: potentiate the anti-proliferative activity of rapamycin; also recorded: increases the percent inhibition of rapamycin alone
cytotoxicity in cell viability assay [9]: non-cytotoxic
inhibition of human coronary artery smooth muscle cell proliferation [10]: inhibit human coronary artery smooth muscle cell proliferation

COc1c(C)c2c(c(O)c1C/C=C(\C)CCC(=O)O)C(=O)OC2 [mycophenolic acid]
effect of added mycophenolic acid on the anti-proliferative rapamycin dose response curve ([3]; mycophenolic acid zero to one thousand nanomolar, FIG. 52): potentiates the anti-proliferative activity of rapamycin
in vivo release of mycophenolic acid from EVA/BMA basecoat, effect of BMA topcoat ([6]; 600 μg basecoat with 180 μg rapamycin and 180 μg mycophenolic acid, no, 100 or 200 μg BMA topcoat, FIG. 54): BMA topcoat does slow the release of mycophenolic acid from the basecoat
in vivo elution of mycophenolic acid compared with rapamycin ([6]; EVA/BMA basecoat, FIG. 53 and 54): elutes more completely over a shorter duration than the rapamycin

CC(/C=C/C(=O)NO)=C\[C@@H](C)C(=O)c1ccc(N(C)C)cc1 [trichostatin A]
inhibition of human coronary artery smooth muscle cell proliferation ([11]; FIG. 51): completely inhibit
IC50 ([11]; read-out: anti-proliferative IC50): ~6 nM
anti-proliferative IC50 [12]: low nM range
